Our source for the fold induction and IC50 values is patent publication US20250092064A1, “BENZOTRIAZOLE COMPOUND” (DAIICHI SANKYO COMPANY, LIMITED, priority 2022, published 2025).

The fold induction is the ratio of treated to control signal. A word on the IC50: it is the concentration that inhibits the measured activity by half. A higher IC50 goes with weaker potency in that assay.

The structures appear in SMILES notation.

For experiment [1], the system named is NQO1 activity in Hepa1c1c7 cells. Nature of the experiment: NAD(P)H: quinone oxidoreductase-1 (NQO1) enzyme induction assay (in vitro). The class given is cell-based, mouse. Conditions: Mus musculus, Hepa-1c1c7, NQO1 activity with 400 nM test compound as a ratio from the base without compound, about 48 hr. The method, then: The NQO1 assay was performed based on a previous report (Methods in Enzymology 2004; 382: 243-258). Hepa1c1c7 cells (mouse hepatocyte cell line, ATCC, cat. no. CRL-2026) were cultured in D-MEM medium containing 10% FBS and 1% penicillin/streptomycin (5% CO2, 37° C.), and seeded into 96-well plates (Corning REF. 353072) at 1×10^4 cells/well. A portion of the wells were prepared with medium only for background measurement without seeding cells. The next day, 400 nM of the test compound (0.004% of the final concentration in DMSO) dissolved in DMSO was added thereto, and the wells were incubated for about 48 hr. A well without adding the test compound was prepared for base activity assay in part. […] After the medium was removed, 50 μL of the cell lysate was added and incubated at 37° C. for 10 minutes, followed by shaking at room temperature for 10 minutes. 200 μL of reaction solution was added thereto, and allowed to stand for 5 minutes at room temperature. 50 μL of the stop solution was added thereto, and absorbance was measured at 610 nm on a SpectraMax PLUS384 (Molecular devices) or […] Pharma Biomedical). The test results were analyzed in Excel, and the NQO1 activity upon addition of 400 nM of test compound was calculated as a ratio from the base without the compound. NQO1 activity ratio when test compound is added=(absorbance when test compound is added-absorbance of medium only)/(absorbance without addition of compound-absorbance of medium only) [numerical formula 2] The results of each test compound in this test are shown in the following Table 2 (A:5<NQO1 activity ratio, B:3<NQO1 activity ratio≤5).

Experiment [2] has as its target binding between Nrf2 and Keap1 (Homo sapiens (Human), UniProt Q14145). Nature of the experiment: FP assay (in vitro): inhibition of Nrf2-Keap1 binding by fluorescence polarization. Particulars: GST-fused human Keap1 (325-642) 20 nM, FITC-labeled Nrf2 peptide 10 nM, 2 hr at room temperature.

Sequence of binding between Nrf2 and Keap1 (Q14145 325-624 limits assumed): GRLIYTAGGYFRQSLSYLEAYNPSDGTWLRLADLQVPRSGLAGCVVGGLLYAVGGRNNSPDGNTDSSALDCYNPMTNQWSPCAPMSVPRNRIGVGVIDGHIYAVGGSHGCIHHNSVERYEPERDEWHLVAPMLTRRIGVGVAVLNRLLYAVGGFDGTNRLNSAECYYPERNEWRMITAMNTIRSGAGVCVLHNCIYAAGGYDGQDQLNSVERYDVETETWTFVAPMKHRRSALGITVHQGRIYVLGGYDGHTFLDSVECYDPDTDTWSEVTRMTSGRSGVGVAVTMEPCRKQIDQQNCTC

Consider `CC[C@@H]1CN(Cc2cc([C@@H](CC(=O)O)c3ccc4c(nnn4C)c3C)cc3ccsc23)C(C)c2nc(O)ccc2O1` (relative stereo) [Example 79, (3R)-3-(1,4-Dimethyl-1H-benzotriazol-5-yl)-3-(7-{[(2R,5R*)-2-ethyl-7-hydroxy-5-methyl-2,3-dihydropyrido[2,3-f][1,4]oxazepin-4(5H)-yl]methyl}-1-benzothiophen-5-yl)propanoic acid], for which, in experiment [1], the fold induction at 0.4 µM was over 5. `CC[C@@H]1Cc2ncccc2S(=O)(=O)N(Cc2cc([C@@H](CC(=O)O)c3ccc4c(nnn4C)c3C)cc3c2CCC3)C1` (single isomer, unassigned) [Example 27, (3R)-3-(1,4-Dimethyl-1H-benzotriazol-5-yl)-3-(7-{[(4S*)-4-ethyl-1,1-dioxido-4,5-dihydropyrido[2,3-f][1,2]thiazepin-2(3H)-yl]methyl}-2,3-dihydro-1H-inden-5-yl)propanoic acid] returned a half-inhibitory concentration (IC50) in experiment [2] of at most 10 nM. Further, the fold induction at 0.4 µM in experiment [1] was over 5. For `CC[C@@H]1Cc2ccccc2S(=O)(=O)N(Cc2cc([C@@H](CC(=O)O)c3ccc4c(nnn4C)c3C)cc3c2CCC3)C1` (single isomer, unassigned) [Example 28, (3R)-3-(1,4-Dimethyl-1H-benzotriazol-5-yl)-3-(7-{[(4S*)-4-ethyl-1,1-dioxido-4,5-dihydro-1,2-benzothiazepin-2(3H)-yl]methyl}-2,3-dihydro-1H-inden-5-yl)propanoic acid] the same measures were at most 10 nM and over 5. Taken in the same sequence, the figures for `CC[C@@H]1CN(Cc2cc(C(CC(=O)O)c3cc(Cl)c4c(nnn4C)c3C)cc3c2CCC3)[C@@H](C)c2ncccc2O1` (single isomer, unassigned) [Example 71, (3R*)-3-(7-Chloro-1,4-dimethyl-1H-benzotriazol-5-yl)-3-(7-{[(2R,5S)-2-ethyl-5-methyl-2,3-dihydropyrido[2,3-f][1,4]oxazepin-4(5H)-yl]methyl}-2,3-dihydro-1H-inden-5-yl)propanoic acid] were at most 10 nM and over 5.

`CC[C@@H]1CN(Cc2cc(C(CC(=O)O)c3cc(Cl)c4c(nnn4C)c3C)cc3c2CCC3)[C@@H](C)c2ncccc2O1` (single isomer, unassigned) [Example 72, (3S*)-3-(7-Chloro-1,4-dimethyl-1H-benzotriazol-5-yl)-3-(7-{[(2R,5S)-2-ethyl-5-methyl-2,3-dihydropyrido[2,3-f][1, 4]oxazepin-4(5H)-yl]methyl}-2,3-dihydro-1H-inden-5-yl)propanoic acid]: the IC50 in experiment [2] was at most 10 nM. Compound `CCC1c2ncccc2O[C@H](CC)CN1Cc1cc([C@H](CC(=O)O)c2ccc3c(nnn3C)c2C)cc2ccsc12` (single isomer, unassigned) [Example 76, (3S)-3-(7-{[(2R,5R*)-2,5-Diethyl-2,3-dihydropyrido[2,3-f][1,4]oxazepin-4(5H)-yl]methyl}-1-benzothiophen-5-yl)-3-(1,4-dimethyl-1H-benzotriazol-5-yl)propanoic acid] displayed an IC50 in experiment [2] of at most 10 nM. Further, the fold induction at 0.4 µM in experiment [1] was over 5.

For the compound `CCC1c2ncccc2O[C@H](CC)CN1Cc1cc([C@H](CC(=O)O)c2ccc3c(nnn3C)c2C)cc2ccsc12` (single isomer, unassigned) [Example 77, (3S)-3-(7-{[(2R,5S*)-2,5-Diethyl-2,3-dihydropyrido[2,3-f][1,4]oxazepin-4(5H)-yl]methyl}-1-benzothiophen-5-yl)-3-(1,4-dimethyl-1H-benzotriazol-5-yl)propanoic acid], the IC50 in experiment [2] is at most 10 nM. In turn, `CC[C@@H]1CN(Cc2cc([C@@H](CC(=O)O)c3ccc4c(nnn4C)c3C)cc3ccsc23)C(C)c2nc(O)ccc2O1` (single isomer, unassigned) [Example 78, (3R)-3-(1,4-Dimethyl-1H-benzotriazol-5-yl)-3-(7-{[(2R,5S*)-2-ethyl-7-hydroxy-5-methyl-2,3-dihydropyrido[2,3-f][1,4]oxazepin-4(5H)-yl]methyl}-1-benzothiophen-5-yl)propanoic acid] gave a half-inhibitory concentration (IC50) in experiment [2] of 10 to 30 nM. Also, the fold induction at 0.4 µM in experiment [1] is over 5. For the compound `CC[C@@H]1CN(Cc2cc([C@@H](CC(=O)O)c3cnc4c(nnn4C)c3C)cc3ccsc23)C(C)c2nc(O)ccc2O1` (single isomer, unassigned) [Example 81, (3R)-3-(3,7-Dimethyl-3H-[1,2,3]triazolo[4,5-b]pyridin-6-yl)-3-(7-{[(2R,5S*)-2-ethyl-7-hydroxy-5-methyl-2,3-dihydropyrido[2,3-f][1,4]oxazepin-4(5H)-yl]methyl}-1-benzothiophen-5-yl)propanoic acid], the fold induction at 0.4 µM in experiment [1] was 3 to 5. `Cc1c([C@H](CC(=O)O)c2cc(CN3C[C@@H](C4CC4)Oc4ccc(O)nc4C3C)c3sccc3c2)ccc2c1nnn2C` (single isomer, unassigned) [Example 83, (3R)-3-(7-{[(2R,5S*)-2-Cyclopropyl-7-hydroxy-5-methyl-2,3-dihydropyrido[2,3-f][1,4]oxazepin-4(5H)-yl]methyl}-1-benzothiophen-5-yl)-3-(1,4-dimethyl-1H-benzotriazol-5-yl)propanoic acid]: the half-maximal inhibitory concentration (IC50) in experiment [2] lay within 30 to 100 nM. The fold induction at 0.4 µM in experiment [1] was over 5. Regarding `Cc1c([C@H](CC(=O)O)c2cc(CN3C[C@@H](C4CC4)Oc4ccc(O)nc4C3C)c3sccc3c2)ccc2c1nnn2C` (single isomer, unassigned) [Example 84, (3R)-3-(7-{[(2R,5R*)-2-Cyclopropyl-7-hydroxy-5-methyl-2,3-dihydropyrido[2,3-f][1,4]oxazepin-4(5H)-yl]methyl}-1-benzothiophen-5-yl)-3-(1,4-dimethyl-1H-benzotriazol-5-yl)propanoic acid], in experiment [2], the IC50 fell in the range of 30 to 100 nM.

As for `Cc1c([C@H](CC(=O)O)c2cc(CN3C[C@@H](C4CC4)Oc4ccc(O)nc4C3C)c3sccc3c2)cnc2c1nnn2C` (single isomer, unassigned) [Example 85, (3R)-3-(7-{[(2R,5R*)-2-Cyclopropyl-7-hydroxy-5-methyl-2,3-dihydropyrido[2,3-f][1,4]oxazepin-4(5H)-yl]methyl}-1-benzothiophen-5-yl)-3-(3,7-dimethyl-3H-[1,2,3]triazolo[4,5-b]pyridin-6-yl)propanoic acid], in experiment [2], the IC50 lay in the range of 10 to 30 nM. Besides, the fold induction at 0.4 µM in experiment [1] is over 5. For `Cc1c([C@H](CC(=O)O)c2cc(CN3CC4(CC4)Oc4ccc(O)nc4C3C)c3sccc3c2)ccc2c1nnn2C` (single isomer, unassigned) [Example 87, (3R)-3-(1,4-Dimethyl-1H-benzotriazol-5-yl)-3-(7-{[(5′S*)-7′-hydroxy-5′-methyl-3′H-spiro[cyclopropane-1,2′-pyrido[2,3-f][1,4]oxazepin]-4′(5′H)-yl]methyl}-1-benzothiophen-5-yl)propanoic acid], in experiment [1], the fold induction at 0.4 µM is over 5.

Regarding `CC[C@@H]1CN(Cc2cc(C(CC(=O)O)c3ccc4c(nnn4C)c3C)cc3c2CCC3)S(=O)(=O)c2ccc(Cl)cc2O1` (stereo partly drawn) [Example 15, 3-(7-{[(4R)-7-Chloro-4-ethyl-1,1-dioxido-3,4-dihydro-2H-5,1,2-benzoxathiazepin-2-yl]methyl}-2,3-dihydro-1H-inden-5-yl)-3-(1,4-dimethyl-1H-benzotriazol-5-yl)propanoic acid], the IC50 in experiment [2] was 30 to 100 nM. In experiment [2], `Cc1c(C(CC(=O)O)c2cc3c(c(CN4CC5(CCOCC5)Oc5ncccc5S4(=O)=O)c2)CCC3)ccc2c1nnn2C` (stereo not shown) [Example 33, 3-(1,4-Dimethyl-1H-benzotriazol-5-yl)-3-{7-[(1,1′-dioxido-2,3,5,6-tetrahydrospiro[pyran-4,4′-pyrido[2,3-b][1,4,5]oxathiazepine]-2′(3′H)-yl)methyl]-2,3-dihydro-1H-inden-5-yl}propanoic acid] yielded an IC50 of 30 to 100 nM. The same measure, in the same setting: in the case of `Cc1c(C(CC(=O)O)c2cc3c(c(CN4CC5(CCC5)Oc5ncccc5S4(=O)=O)c2)CCC3)ccc2c1nnn2C` (stereo not shown) [Example 35, 3-(1,4-Dimethyl-1H-benzotriazol-5-yl)-3-{7-[(1,1′-dioxido-spiro[cyclobutane-1,4′-pyrido[2,3-b][1,4,5]oxathiazepine]-2′(3′H)-yl)methyl]-2,3-dihydro-1H-inden-5-yl}propanoic acid] it was 10 to 30 nM. Still for that read-out and setting: in the case of `Cc1c(C(CC(=O)O)c2cc3c(c(CN4CC5(COC5)Oc5ncccc5S4(=O)=O)c2)CCC3)ccc2c1nnn2C` (stereo not shown) [Example 36, 3-(1,4-Dimethyl-1H-benzotriazol-5-yl)-3-{7-[(1,1′-dioxido-spiro[oxetane-3,4′-pyrido[2,3-b][1,4,5]oxathiazepine]-2′ (3′H)-yl)methyl]-2,3-dihydro-1H-inden-5-yl}propanoic acid] it was 10 to 30 nM; in that of `CC[C@@H]1CN(Cc2cc([C@H](CC(=O)O)c3ccc4c(nnn4C)c3C)cc3ccsc23)[C@@H](C)c2ncccc2O1` [Example 62, (3S)-3-(1,4-Dimethyl-1H-benzotriazol-5-yl)-3-(7-{[(2R,5S)-2-ethyl-5-methyl-2,3-dihydropyrido[2,3-f][1,4]oxazepin-4(5H)-yl]methyl}-1-benzothiophen-5-yl)propanoic acid], 10 to 30 nM.
